Tests used:
Type in all cases: biochemical
[1] = biological target: T1, Recombinant EphA7 (Homo sapiens, UniProt Q15375); assay: EphA7 assay (33P incorporation into poly GT, filter plate); conditions: EphA7 potency; 0.15 μM ATP; read-out: IC50
T1 construct: purchased Carna 08-126
Description: (§1) The principle of the assay consists of the measurement of incorporated ^33P into the substrate poly GT when phosphorylated by the enzyme EphA7 using [^33P]-γ-ATP and ATP. Unincorporated ^33P is removed by loading the samples on a filter plate (using a harvester, Perkin Elmer) and 6 subsequent washing steps. ^33P incorporated in polyGT is measured on a Topcount after addition of microscint to the filter plates (Perkin Elmer).
Recombinant EphA7 (Carna Cat#08-126, 2 ng per well) was incubated with 0.1 mg/mL Poly(Glu,Tyr)sodium salt (4:1), MW 20 000-50 000 (Sigma catalog number P0275) in kinase reaction buffer (10 mM MOPS pH 7.2, 5 mM DTT, 0.01% Triton-X100, 5 mM MnCl2, 0.5 mM Na3VO4, 5 mM beta-glycerolphosphate), 0.15 μM non-radioactive ATP, 0.125 μCi/25 μl ^33P-gamma-ATP (Perkin Elmer, catalog number NEG602K) final concentrations with or without 5 μL containing test compound or vehicle (DMSO, 1% final concentration), in a total volume of 25 μL, in a polypropylene 96-well plate (Greiner, V-bottom). After 90 min at 30° C., reactions were stopped by adding of 25 μL/well of 150 mM phosphoric acid. All of the terminated kinase reaction was transferred to prewashed (75 mM phosphoric acid) 96 well filter plates (Perkin Elmer catalog number 6005177) using a cell harvester (Perkin Elmer). Plates were washed 6 times with 300 μL per well of a 75 mM phosphoric acid solution and the bottom of the plates was sealed. 40 μL/well of Microscint-20 was added, the top of the plates was sealed and readout was performed using the Topcount (Perkin Elmer). The ability of a test compound to inhibit the kinase activity was determined using counts per minutes (cpm) measured by the Topcount as:
(§2) Cpm (cpd): cpm determined for sample with test compound present
(§3) Cpm (control): cpm determined for sample with positive control inhibitor (10 μM staurosporine)
(§4) Cpm (vehicle): cpm determined in the presence of vehicle (1% DMSO)
(§5) Dose dilution series were prepared for the compounds enabling the testing of dose-response effects in the EphA7 assay and the calculation of the IC50 for each compound. Each compound was routinely tested at concentration of 20 μM followed by a 1/5 serial dilution, 10 points in a final concentration of 1% DMSO. When potency of compound series increased, more dilutions may be prepared and/or the top concentration may be lowered (e.g. 5 μM, 1 μM).

[2] = biological target: T2, EphA2 (UniProt Ref: P29317) (Homo sapiens, UniProt P29317); assay: EphA2 assay (Reaction Biology HotSpot radioactive kinase assay); conditions: ATP 10 μM; read-out: EphA2 potency IC50
T2 construct: purchased Reaction Biology
Description: Inhibition of EphA2 (UniProt Ref: P29317) by a test compound is determined by a commercially available Reaction Biology proprietary nanoliter radioactive HotSpot^SM assay (Reaction Biology, One great valley parkway, Suite 2, Malvern Pa., 19355, USA). The principle of the assay consists of the measurement of incorporated ^33P into poly[Glu:Tyr] (4:1) (0.2 mg/mL) when the substrate is phosphorylated by the enzyme using [^33P]-γ-ATP and ATP (10 μM).
To determine the IC50, a serial dilution of compound is tested starting from 10, or 3 μM (highest dilution) with a 1/3 dilution.

[3] = biological target: T3, Recombinant EphB2 (Homo sapiens, UniProt P29323); assay: EphB2 assay (33P incorporation into poly GT, filter plate); conditions: read-out: EphB2 potency IC50
T3 construct: purchased Carna 08-129
T3 sequence (P29323 19-986 isoform P29323-2 limits assumed): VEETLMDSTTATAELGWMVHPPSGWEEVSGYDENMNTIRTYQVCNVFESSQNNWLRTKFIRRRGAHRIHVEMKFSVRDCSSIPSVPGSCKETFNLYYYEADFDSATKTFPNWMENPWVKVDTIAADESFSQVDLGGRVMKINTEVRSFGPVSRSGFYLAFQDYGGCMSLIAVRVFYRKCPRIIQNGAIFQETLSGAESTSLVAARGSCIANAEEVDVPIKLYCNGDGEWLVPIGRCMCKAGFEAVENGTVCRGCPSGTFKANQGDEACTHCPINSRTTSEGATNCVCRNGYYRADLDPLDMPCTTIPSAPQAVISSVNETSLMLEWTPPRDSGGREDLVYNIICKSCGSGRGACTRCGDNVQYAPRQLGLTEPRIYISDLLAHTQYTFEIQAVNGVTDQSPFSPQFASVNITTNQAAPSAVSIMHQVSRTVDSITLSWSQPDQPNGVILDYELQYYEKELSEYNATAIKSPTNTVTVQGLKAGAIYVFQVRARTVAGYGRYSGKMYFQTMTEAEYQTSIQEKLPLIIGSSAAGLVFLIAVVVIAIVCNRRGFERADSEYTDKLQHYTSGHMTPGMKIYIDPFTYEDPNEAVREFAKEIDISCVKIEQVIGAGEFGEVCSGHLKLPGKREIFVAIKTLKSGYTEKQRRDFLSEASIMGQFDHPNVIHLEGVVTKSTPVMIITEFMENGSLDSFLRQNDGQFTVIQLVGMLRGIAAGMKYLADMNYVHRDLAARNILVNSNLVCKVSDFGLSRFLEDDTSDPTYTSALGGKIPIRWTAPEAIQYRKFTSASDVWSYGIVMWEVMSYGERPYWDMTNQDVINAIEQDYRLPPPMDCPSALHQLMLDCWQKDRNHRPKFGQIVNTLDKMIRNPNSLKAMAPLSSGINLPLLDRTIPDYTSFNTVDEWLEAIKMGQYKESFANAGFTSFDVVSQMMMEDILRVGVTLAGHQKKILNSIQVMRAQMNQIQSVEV
Description: as §1, with “EphB2” for “EphA7”
Recombinant EphB2 (Carna Cat#08-129, 0.6 ng per well) was incubated with 0.05 mg/mL Poly(Glu,Tyr)sodium salt (4:1), MW 20 000-50 000 (Sigma catalog number P0275) in kinase reaction buffer (10 mM MOPS pH 7.2, 5 mM DTT, 0.01% Triton-X100, 5 mM MnCl2, 0.5 mM Na3VO4, 5 mM beta-glycerolphosphate), 0.5 μM non-radioactive ATP, 0.25 μCi/25 μl ^33P-gamma-ATP (Perkin Elmer, catalog number NEG602K) final concentrations with or without 5 μL containing test compound or vehicle (DMSO, 1% final concentration), in a total volume of 25 μL, in a polypropylene 96-well plate (Greiner, V-bottom). After 45 min at 30° C., reactions were stopped by adding of 25 μL/well of 150 mM phosphoric acid. The experiment was then conducted as described for EphA7. The ability of a test compound to inhibit the kinase activity was determined using counts per minutes (cpm) measured by the Topcount as:
as §2, §3, §4
as §5, with “EphB2” for “EphA7”

T2 sequence (P29317 24-976): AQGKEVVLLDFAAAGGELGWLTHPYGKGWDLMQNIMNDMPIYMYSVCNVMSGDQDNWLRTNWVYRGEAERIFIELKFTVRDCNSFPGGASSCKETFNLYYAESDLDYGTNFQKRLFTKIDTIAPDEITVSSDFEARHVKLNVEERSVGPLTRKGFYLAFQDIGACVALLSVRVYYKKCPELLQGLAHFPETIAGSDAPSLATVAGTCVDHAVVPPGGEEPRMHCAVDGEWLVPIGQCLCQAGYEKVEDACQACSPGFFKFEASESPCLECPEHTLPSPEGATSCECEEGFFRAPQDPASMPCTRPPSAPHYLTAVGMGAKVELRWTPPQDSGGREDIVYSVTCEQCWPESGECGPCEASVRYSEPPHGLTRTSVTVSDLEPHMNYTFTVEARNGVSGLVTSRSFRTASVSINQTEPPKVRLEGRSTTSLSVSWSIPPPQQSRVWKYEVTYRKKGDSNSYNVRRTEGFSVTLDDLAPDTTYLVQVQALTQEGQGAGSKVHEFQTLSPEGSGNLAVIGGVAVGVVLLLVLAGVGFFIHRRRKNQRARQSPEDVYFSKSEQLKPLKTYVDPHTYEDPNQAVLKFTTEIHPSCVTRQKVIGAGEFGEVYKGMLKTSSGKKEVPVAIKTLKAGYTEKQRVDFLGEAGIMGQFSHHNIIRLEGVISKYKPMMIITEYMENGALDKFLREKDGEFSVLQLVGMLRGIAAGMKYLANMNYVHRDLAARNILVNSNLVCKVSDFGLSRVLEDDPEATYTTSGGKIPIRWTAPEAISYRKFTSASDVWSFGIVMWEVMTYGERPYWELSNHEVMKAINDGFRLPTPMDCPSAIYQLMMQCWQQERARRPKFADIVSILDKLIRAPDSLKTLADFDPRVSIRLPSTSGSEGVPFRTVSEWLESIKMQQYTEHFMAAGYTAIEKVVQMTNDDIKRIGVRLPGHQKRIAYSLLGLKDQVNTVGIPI
T1 sequence (Q15375 579-998 limits assumed): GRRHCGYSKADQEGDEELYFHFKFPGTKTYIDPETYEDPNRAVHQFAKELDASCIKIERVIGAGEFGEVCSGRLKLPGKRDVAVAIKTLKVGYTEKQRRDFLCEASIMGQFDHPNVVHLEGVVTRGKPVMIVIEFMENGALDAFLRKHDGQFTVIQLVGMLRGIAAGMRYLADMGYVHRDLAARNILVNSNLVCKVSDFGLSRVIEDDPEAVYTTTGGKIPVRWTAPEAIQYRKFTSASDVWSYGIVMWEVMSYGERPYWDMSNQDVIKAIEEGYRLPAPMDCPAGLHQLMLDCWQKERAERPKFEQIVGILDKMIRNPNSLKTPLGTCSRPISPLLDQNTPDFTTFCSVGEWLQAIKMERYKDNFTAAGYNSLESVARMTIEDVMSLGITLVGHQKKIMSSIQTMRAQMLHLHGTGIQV

## Cc1cc(OCCN2CCOCC2)cc(C(=O)Nc2ccc(C)c(-c3ccc4c(C(C)O)n[nH]c4n3)c2)c1 (stereo not shown) [Compound 28, N-{3-[3-(1-Hydroxy-ethyl)-1H-pyrazolo[3,4-b]pyridin-6-yl]-4-methyl-phenyl}-3-methyl-5-(2-morpholin-4-yl-ethoxy)-benzamide]
[1]
  IC50: > 1000 nM
[2]
  IC50: 25 to 50 nM
[3]
  IC50: 0.01 to 25 nM

## CCc1n[nH]c2nc(-c3cc(NC(=O)c4cc(C)cc(OCCN)c4)ccc3C)ccc12 [Compound 30, 3-(2-Amino-ethoxy)-N-[3-(3-ethyl-1H-pyrazolo[3,4-b]pyridin-6-yl)-4-methyl-phenyl]-5-methyl-benzamide]
[1]
  IC50: 250 to 500 nM
[2]
  IC50: 0.01 to 25 nM
[3]
  IC50: 0.01 to 25 nM

## CCc1n[nH]c2nc(-c3cc(NC(=O)c4cc(C)cc(OCCCN)c4)ccc3C)ccc12 [Compound 31, 3-(3-Amino-propoxy)-N-[3-(3-ethyl-1H-pyrazolo[3,4-b]pyridin-6-yl)-4-methyl-phenyl]-5-methyl-benzamide]
[1]
  IC50: 0.01 to 250 nM
[2]
  IC50: 0.01 to 25 nM
[3]
  IC50: 0.01 to 25 nM

## COc1cc(OC)cc(C(=O)Nc2cnc(C)c(-c3ccc4c(C5CC5)n[nH]c4n3)c2)c1 [Compound 34, N-(5-(3-cyclopropyl-1H-pyrazolo[3,4-b]pyridin-6-yl)-6-methylpyridin-3-yl)-3,5-dimethoxybenzamide]
[1]
  IC50: > 1000 nM
[3]
  IC50: 0.01 to 25 nM

## CCc1n[nH]c2nc(-c3cc(NC(=O)c4cc(OCCN5CCOCC5)cc(C(F)(F)F)c4)ccc3C)ccc12 [Compound 36, N-[3-(3-Ethyl-1H-pyrazolo[3,4-b]pyridin-6-yl)-4-methyl-phenyl]-3-(2-morpholin-4-yl-ethoxy)-5-trifluoromethyl-benzamide]
[1]
  IC50: 500 to 1000 nM
[2]
  IC50: 0.01 to 25 nM
[3]
  IC50: > 100 nM

## CCc1n[nH]c2nc(-c3cc(NC(=O)c4cc(OC)cc(C5CC5)c4)cnc3C)ccc12 [Compound 38, 3-Cyclopropyl-N-[5-(3-ethyl-1H-pyrazolo[3,4-b]pyridin-6-yl)-6-methyl-pyridin-3-yl]-5-methoxy-benzamide]
[1]
  IC50: 250 to 500 nM
[2]
  IC50: 0.01 to 25 nM
[3]
  IC50: > 100 nM

## CCc1n[nH]c2nc(-c3cc(NC(=O)c4cc(OC)cc(OCCN5CCOCC5)c4)cnc3C)ccc12 [Compound 40, N-[5-(3-Ethyl-1H-pyrazolo[3,4-b]pyridin-6-yl)-6-methyl-pyridin-3-yl]-3-methoxy-5-(2-morpholin-4-yl-ethoxy)-benzamide]
[1]
  IC50: > 1000 nM
[3]
  IC50: > 100 nM

## CCc1n[nH]c2nc(-c3cc(NC(=O)c4cccc(C(F)(F)F)c4)cnc3C)ccc12 [Compound 42, N-[5-(3-Ethyl-1H-pyrazolo[3,4-b]pyridin-6-yl)-6-methyl-pyridin-3-yl]-3-trifluoromethyl-benzamide]
[1]
  IC50: > 1000 nM
[2]
  IC50: 50 to 100 nM
[3]
  IC50: > 100 nM

## CCc1n[nH]c2nc(-c3cc(NC(=O)c4cc(OC)cc(OCCCN)c4)ccc3C)ccc12 [Compound 45, 3-(3-Amino-propoxy)-N-[3-(3-ethyl-1H-pyrazolo[3,4-b]pyridin-6-yl)-4-methyl-phenyl]-5-methoxy-benzamide]
[1]
  IC50: 250 to 500 nM
[2]
  IC50: 0.01 to 25 nM
[3]
  IC50: 0.01 to 25 nM

## CCc1n[nH]c2nc(-c3cc(NC(=O)c4cc(OC)cc(OCCCN)c4)cnc3C)ccc12 [Compound 46, 3-(3-Amino-propoxy)-N-[5-(3-ethyl-1H-pyrazolo[3,4-b]pyridin-6-yl)-6-methyl-pyridin-3-yl]-5-methoxy-benzamide]
[1]
  IC50: 500 to 1000 nM
[2]
  IC50: 0.01 to 25 nM
[3]
  IC50: 25 to 50 nM

## Cc1ccc(NC(=O)c2cccc(C(F)(F)F)c2)cc1-c1ccc2c([C@@H](C)O)n[nH]c2n1 [Compound 56, N-{3-[3-((R)-1-Hydroxy-ethyl)-1H-pyrazolo[3,4-b]pyridin-6-yl]-4-methyl-phenyl}-3-trifluoromethyl-benzamide]
[1]
  IC50: > 1000 nM
[2]
  IC50: 0.01 to 25 nM
[3]
  IC50: 0.01 to 25 nM

Reference: patent publication US9062051B2, “Compounds and pharmaceutical compositions thereof for the treatment of proliferative disorders” (GALAPAGOS NV, priority 2014, dated 2015)
